These are literature values, as cited in patent publication US20040097404A1, “Supplement to be enternally administered for parenteral nutrition or partial enteral/oral nurtrition of the critically ill, the chronically ill and people with malnutrition” (priority 2000, published 2004).

For data set [1] the following is noted: oral, daily doses of 50 to 400 mg/kg of body weight over 3 weeks.

As for `CCCC(=O)OCC(COC(=O)CCC)OC(=O)CCC` [glycerol tributyrate], in data set [1], the “butyrate concentration in the plasma” value is ~0.5 mmol and the toxic side effects result was “without detectable toxic side effects”.
Take `[Cr+3]` [trivalent chromium]: for the setting “parenteral form for 21 years, patient”, the “carcinogenic properties at autopsy” value was “no evidence of carcinogenic properties”. The toxicity result (trivalent chromium) is listed as “nontoxic”.
